Results taken from patent publication US20250115598A1 (Anaxis Pharma Pty Ltd, priority 2021, published 2025).
Where two headings read alike, the source gives them in different places.

Assays:
U937 cells = assay: Counter screen: cell viability without the TSQ cocktail (off-target effect); design: species or system human
Description: • Cell Line ID: U937 human histiocytic leukemia cell line. • Cell Concentration (cells/well): Final cell density is 20000 cells per well. • Cell growth medium: HT-RPMI medium+7.4% Fetal Bovine Serum (FBS). Cells are cultured in Corning 150 cm^2 tissue culture flasks with vented caps at 37° C./5% CO2. • Incubation: Plates were incubated at 37° C./5% CO2 in a humidified incubator for 48 hours following addition of compounds and death stimuli (TSQ cocktail). • Compound concentration: 36 μM starting concentration, 1:3 dilution, 10 point • DMSO final concentration (% v/v): 0.3%. Compounds in TSQ Cocktail (T: TNF; S: Smac Mimetic; Q: Q-VD-OPh) and their Final Concentrations: • hTNF-Fc (100 ng/ml)—produced by standard procedures as shown in Bossen et al., J. Biol. Chem., 2006, 281(20), 13964-13971. • Compound A (500 nM)—Smac mimetic, Tetralogic and SYNthesis med chem • Q-VD-OPh (10 μM)—MP Biomedicals
The cellular assay was carried out according to the following steps: • 1. Each well was prepared by sequential addition of: • a. DMSO (control; columns 1-2 and 23-24) or compound in DMSO—addition was performed using acoustic transfer of nL volumes of stock compound to give final test concentrations of 36, 12, 4, 1.3, 0.44, 0.148, 0.049, 0.016, 0.005 and 0.002 μM. All wells were backfilled with DMSO to a final total volume in the well of 100 nL. • b. Following compound/DMSO addition in step (a), 40 μL of cell suspension (5×10^5 cells/mL) was added to provide a final cell concentration of 20,000 cells per well, and • c. Following cell addition in step (b), 10 μL of 5×TSQ cocktail (except to positive controls; columns 1 and 23) was added to each well. • 2. After 48 hours, plate was removed from the 37° C. incubator and equilibrated to room temperature for 45 minutes. • 3.15 μL of room temperature CellTitre-Glo2™ (Promega™) was added to each well. • 4. Shook plates for 2 minutes (˜600 rpm) and incubated at room temperature for 15 minutes to allow signal to stabilise. • 5. Read luminescence readout on a plate reader.
• Assay involving the TSQ cocktail (T: TNF; S: Smac mimetic; Q: Q-VD-OPh): TSQ treatment ensures that cells specifically undergo necroptotic cell death. TNF activates the TNF receptor, Smac mimetic directs the signal away from proinflammatory signaling and toward the RIPK1/RIPK3-mediated cell death pathways, and Q-VD-OPh ensures that the apoptotic response is blocked leaving only the programmed necrosis response. The compounds' activity (solution in DMSO) tested in this TSQ-induced assay was evaluated by determining the number of viable cells in culture by measuring the amount of ATP present as measured by CelltiterGlo. • Counter screen: In parallel, all compounds were tested for their ability to affect cell viability. The same U937 cells were treated with compound in DMSO without the TSQ cocktail. This counter screen enabled evaluation of off-target effects. In this case, cell viability was measured by CelltiterGlo.

human RIPK3 = human RIPK3 (Homo sapiens (Human), UniProt Q9Y572); assay: KINOMEscan binding assay, human RIPK3; conditions: Table 21
human RIPK3, sequence (Q9Y572 whole entry): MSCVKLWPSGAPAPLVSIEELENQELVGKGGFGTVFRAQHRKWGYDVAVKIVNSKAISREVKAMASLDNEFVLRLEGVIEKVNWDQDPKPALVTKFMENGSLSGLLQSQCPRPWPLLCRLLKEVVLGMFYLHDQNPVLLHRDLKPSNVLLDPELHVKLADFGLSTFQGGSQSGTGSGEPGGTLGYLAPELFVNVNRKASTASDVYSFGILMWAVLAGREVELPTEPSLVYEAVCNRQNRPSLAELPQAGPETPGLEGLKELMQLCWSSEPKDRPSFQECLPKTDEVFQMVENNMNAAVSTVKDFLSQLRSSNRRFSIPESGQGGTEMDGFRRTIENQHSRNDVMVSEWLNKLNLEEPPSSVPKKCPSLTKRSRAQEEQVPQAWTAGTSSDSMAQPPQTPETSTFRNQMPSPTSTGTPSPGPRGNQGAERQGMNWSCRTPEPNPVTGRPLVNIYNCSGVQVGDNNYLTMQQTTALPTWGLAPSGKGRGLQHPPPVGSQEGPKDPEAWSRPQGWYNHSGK
In short: (§1)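 Kd values come from dose-response fits to the Hill equation (Hill slope −1, Levenberg–Marquardt least squares). Compound competed with bead-bound ligand for tagged kinase, and remaining kinase was measured by qPCR after elution. Dilution series: 11 points, 3-fold, 1% DMSO final, top 30,000 nM in most runs.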

human RIPK1 = human RIPK1 (Homo sapiens (Human), UniProt Q13546); assay: KINOMEscan binding assay, human RIPK1; conditions: Table 21
human RIPK1, sequence (Q13546 whole entry): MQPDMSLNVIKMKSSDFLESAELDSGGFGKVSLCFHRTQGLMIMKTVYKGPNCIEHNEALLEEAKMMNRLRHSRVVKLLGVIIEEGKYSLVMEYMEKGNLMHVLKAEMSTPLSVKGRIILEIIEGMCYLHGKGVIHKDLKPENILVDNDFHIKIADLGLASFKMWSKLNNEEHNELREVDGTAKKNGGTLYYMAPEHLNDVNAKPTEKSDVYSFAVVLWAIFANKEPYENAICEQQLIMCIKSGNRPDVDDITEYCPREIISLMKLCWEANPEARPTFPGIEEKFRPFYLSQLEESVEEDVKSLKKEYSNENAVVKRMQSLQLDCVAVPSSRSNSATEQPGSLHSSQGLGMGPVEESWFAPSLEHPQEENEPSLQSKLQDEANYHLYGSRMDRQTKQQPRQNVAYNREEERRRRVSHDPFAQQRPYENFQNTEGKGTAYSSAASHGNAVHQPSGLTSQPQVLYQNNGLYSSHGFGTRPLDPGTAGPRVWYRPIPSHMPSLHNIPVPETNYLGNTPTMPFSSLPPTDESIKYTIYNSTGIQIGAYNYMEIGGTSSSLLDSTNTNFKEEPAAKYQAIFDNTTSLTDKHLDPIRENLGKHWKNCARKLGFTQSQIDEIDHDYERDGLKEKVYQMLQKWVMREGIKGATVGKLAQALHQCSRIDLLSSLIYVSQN
In short: as §1

[1] = test system: Immortalised Mouse Dermal Fibroblasts (MDFs); assay: Cellular assay: inhibition of TSI induced necroptosis, CellTitre-Glo viability; conditions: Mus musculus, Fibroblast; MDF, 3 hours TSI cocktail, Table 27; read-out: Inhibition of TSI-induced necroptosis (IC50 cell-based assay) in MDF
In short: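 Necroptosis induced for 3 h with TSI: rhTNF 100 ng/ml, Smac mimetic 500 nM, caspase inhibitor IDN-6556 10 μM. Mouse dermal fibroblasts had received compound (36 μM top, ten three-fold steps) 30 min beforehand. ATP-based viability scaled between untreated and TSI-only wells; IC50 taken as 4-parameter curve inflection.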

human MLKL (full length) = human MLKL (full length) (Homo sapiens (Human), UniProt Q8NB16); assay: KINOMEscan binding assay, human MLKL (full length); conditions: hMLKL, Table 25; read-out: MLKL (KD)
human MLKL (full length), sequence (Q8NB16 whole entry): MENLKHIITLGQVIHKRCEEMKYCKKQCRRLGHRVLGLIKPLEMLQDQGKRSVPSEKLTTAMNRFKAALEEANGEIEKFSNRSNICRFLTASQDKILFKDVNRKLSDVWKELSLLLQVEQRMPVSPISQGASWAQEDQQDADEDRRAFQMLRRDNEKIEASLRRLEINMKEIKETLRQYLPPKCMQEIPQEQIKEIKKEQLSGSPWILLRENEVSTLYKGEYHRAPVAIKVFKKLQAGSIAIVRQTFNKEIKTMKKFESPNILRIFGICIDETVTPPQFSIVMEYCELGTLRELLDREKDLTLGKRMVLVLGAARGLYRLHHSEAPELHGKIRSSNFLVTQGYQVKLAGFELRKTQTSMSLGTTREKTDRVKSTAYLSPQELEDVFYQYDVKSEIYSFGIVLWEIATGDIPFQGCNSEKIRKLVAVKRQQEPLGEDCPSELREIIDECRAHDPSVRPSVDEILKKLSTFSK
In short: as §1

endogenous MLKL in MDF = endogenous MLKL in MDF (Mus musculus (Mouse), UniProt Q9D2Y4); assay: Degradation assay: endogenous MLKL in MDF (western blot); conditions: MDF cells, 24 h incubation with compound, MLKL adjusted for loading with GAPDH, normalized to DMSO only control, read-out: Degradation of endogenous MLKL in MDF (DC50 cell-based assay)
endogenous MLKL in MDF, sequence (Q9D2Y4 whole entry): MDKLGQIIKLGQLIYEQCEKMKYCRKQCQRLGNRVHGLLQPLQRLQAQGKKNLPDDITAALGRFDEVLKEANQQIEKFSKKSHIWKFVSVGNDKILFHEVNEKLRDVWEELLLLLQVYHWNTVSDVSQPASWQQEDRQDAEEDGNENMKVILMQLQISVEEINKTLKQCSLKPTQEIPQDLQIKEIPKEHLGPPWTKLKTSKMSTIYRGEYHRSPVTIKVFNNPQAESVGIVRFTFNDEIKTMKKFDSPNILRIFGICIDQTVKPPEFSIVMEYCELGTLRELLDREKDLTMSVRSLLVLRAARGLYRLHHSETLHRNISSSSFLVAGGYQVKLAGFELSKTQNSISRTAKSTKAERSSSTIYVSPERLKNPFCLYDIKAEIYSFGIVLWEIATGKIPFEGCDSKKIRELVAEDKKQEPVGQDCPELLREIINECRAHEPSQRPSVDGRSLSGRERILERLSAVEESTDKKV
In short: (§2)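 Western blot band intensity of MLKL, adjusted to GAPDH loading and normalized to DMSO-only wells, gave percent degradation. Compound exposure lasted 24 h at final concentrations of 10–0.016 μM in 1:5 steps, in mouse dermal fibroblasts or human U937 cells.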

endogenous MLKL in U937 = endogenous MLKL in U937 (Homo sapiens (Human), UniProt Q8NB16); assay: Degradation assay: endogenous MLKL in U937 (western blot); conditions: U937, 24 h incubation, read-out: Degradation of endogenous MLKL in U937 (DC50 cell-based assay)
endogenous MLKL in U937, sequence (Q8NB16 whole entry): as the sequence (Q8NB16 whole entry) above
In short: as §2

[2] = Homo sapiens, U-937, Table 23, read-out: Off-target effect (IC50 cell-based assay)

| Structure (SMILES) | Kd (human RIPK3) | Kd (human RIPK1) | Kd (human MLKL (full length)) | DC50 (endogenous MLKL in MDF) | DC50 (endogenous MLKL in U937) | IC50 (U937 cells; [2]) | IC50 (U937 cells; Table 23, read-out: Off-target effect (IC50 cell-based assay)) | IC50 [1] |
| --- | --- | --- | --- | --- | --- | --- | --- | --- |
| C[C@H](Oc1cc(-c2nn(C)c3c(-c4cnn(C5CCN(C)C6(CC6)C5)c4)cnc(N)c23)ccc1NS(=O)(=O)C(F)F)c1ccc(F)cc1 (single isomer, unassigned) [Compound 170, N-(4-(4-amino-1-methyl-7-(1-((S*)-4-methyl-4-azaspiro[2.5]octan-7-yl)-1H-pyrazol-4-yl)-1H-pyrazolo[4,3-c]pyridin-3-yl)-2-((S)-1-(4-fluorophenyl)ethoxy)phenyl)-1,1-difluoromethanesulfonamide] |  |  |  |  |  | > 10 µM |  |  |
| C[C@H](Oc1cc(-c2nn(C)c3c(-c4cnn(C5CCN(C)C6(CC6)C5)c4)cnc(N)c23)ccc1NS(=O)(=O)C(F)F)c1ccc(F)cc1 (single isomer, unassigned) [Compound 171, N-(4-(4-amino-1-methyl-7-(1-((R*)-4-methyl-4-azaspiro[2.5]octan-7-yl)-1H-pyrazol-4-yl)-1H-pyrazolo[4,3-c]pyridin-3-yl)-2-((S)-1-(4-fluorophenyl)ethoxy)phenyl)-1,1-difluoromethanesulfonamide] |  |  |  |  |  |  | > 10 µM |  |
| C[C@H](Oc1cc(-c2nn(C)c3c(-c4ccnc(C(C)(C)C)c4)cnc(N)c23)ccc1NS(=O)(=O)C(F)F)c1ccc(F)cc1 [Compound 48, (S)-N-(4-(4-amino-7-(2-(tert-butyl)pyridin-4-yl)-1-methyl-1H-pyrazolo[4,3-c]pyridin-3-yl)-2-(1-(4-fluorophenyl)ethoxy)phenyl)-1,1-difluoromethanesulfonamide] | > 10 µM | > 10 µM |  |  |  | 1 to 10 µM |  |  |
| Cn1nc(-c2ccc(NS(=O)(=O)C(F)F)c(F)c2)c2c(N)ncc(-c3cnn(C4CCN(C(=O)N5CCN(c6cccc7c6C(=O)N(C6CCC(=O)NC6=O)C7=O)CC5)CC4)c3)c21 (stereo not drawn) [Compound 1131, N-(4-{4-amino-7-[1-(1-{4-[2-(2,6-dioxopiperidin-3-yl)-1,3-dioxo-2,3-dihydro-1H-isoindol-4-yl]piperazine-1-carbonyl}piperidin-4-yl)-1H-pyrazol-4-yl]-1-methyl-1H-pyrazolo[4,3-c]pyridin-3-yl}-2-fluorophenyl)-1,1-difluoromethanesulfonamide] |  |  | < 10 nM | < 1000 nM | < 1000 nM |  |  | 1000 to 10000 nM |
| Cn1nc(-c2ccc(NS(=O)(=O)CC(F)(F)F)c(F)c2)c2c(N)ncc(-c3cnn(C4CCN(C(=O)[C@H]5C[C@H](Nc6cccc7c6C(=O)N(C6CCC(=O)NC6=O)C7=O)C5)CC4)c3)c21 (stereo partly drawn) [Compound 1134, N-{4-[4-amino-1-methyl-7-(1-{1-[(trans)-3-{[2-(2,6-dioxopiperidin-3-yl)-1,3-dioxo-2,3-dihydro-1H-isoindol-4-yl]amino}cyclobutanecarbonyl]piperidin-4-yl}-1H-pyrazol-4-yl)-1H-pyrazolo[4,3-c]pyridin-3-yl]-2-fluorophenyl}-2,2,2-trifluoroethane-1-sulfonamide] |  |  | < 10 nM | < 1000 nM | < 1000 nM |  |  | < 1000 nM |

Further lines, with some results ahead:

| Kd (human RIPK3) | Kd (human RIPK1) | Kd (human MLKL (full length)) | DC50 (endogenous MLKL in MDF) | DC50 (endogenous MLKL in U937) | Structure (SMILES) | IC50 (U937 cells; [2]) | IC50 (U937 cells; Table 23, read-out: Off-target effect (IC50 cell-based assay)) | IC50 [1] |
| --- | --- | --- | --- | --- | --- | --- | --- | --- |
|  |  | < 10 nM | 1000 to 10000 nM | < 1000 nM | Cn1nc(-c2ccc(NS(=O)(=O)C(F)F)c(F)c2)c2c(N)ncc(-c3cnn(C4CCN(Cc5cccc(CNc6cccc7c6C(=O)N(C6CCC(=O)NC6=O)C7=O)c5)CC4)c3)c21 (stereo not drawn) [Compound 1122, N-(4-{4-amino-7-[1-(1-{[3-({[2-(2,6-dioxopiperidin-3-yl)-1,3-dioxo-2,3-dihydro-1H-isoindol-4-yl]amino}methyl)phenyl]methyl}piperidin-4-yl)-1H-pyrazol-4-yl]-1-methyl-1H-pyrazolo[4,3-c]pyridin-3-yl}-2-fluorophenyl)-1,1-difluoromethanesulfonamide] |  |  | 1000 to 10000 nM |
|  |  | < 10 nM | < 1000 nM | < 1000 nM | C[C@H](Oc1cc(-c2nn(C)c3c(-c4cnn(C5CCN(CCc6ccc7c(c6)C(=O)N(C6CCC(=O)NC6=O)C7=O)CC5)c4)cnc(N)c23)ccc1NS(=O)(=O)C(F)F)c1ccc(F)cc1 (stereo partly drawn) [Compound 1123, N-(4-{4-amino-7-[1-(1-{2-[2-(2,6-dioxopiperidin-3-yl)-1,3-dioxo-2,3-dihydro-1H-isoindol-5-yl]ethyl}piperidin-4-yl)-1H-pyrazol-4-yl]-1-methyl-1H-pyrazolo[4,3-c]pyridin-3-yl}-2-[(1S)-1-(4-fluorophenyl)ethoxy]phenyl)-1,1-difluoromethanesulfonamide] |  |  | < 1000 nM |
|  |  | 10 to 1000 nM | < 1000 nM | < 1000 nM | C[C@H](Oc1cc(-c2nn(C)c3c(-c4cnn(C5CCN(C(=O)C6CCC(c7cccc8c7C(=O)N(C7CCC(=O)NC7=O)C8=O)CC6)CC5)c4)cnc(N)c23)ccc1NS(=O)(=O)C(F)F)c1ccc(F)cc1 (stereo partly drawn) [Compound 1125, N-(4-{4-amino-7-[1-(1-{4-[2-(2,6-dioxopiperidin-3-yl)-1,3-dioxo-2,3-dihydro-1H-isoindol-4-yl]cyclohexane-carbonyl}piperidin-4-yl)-1H-pyrazol-4-yl]-1-methyl-1H-pyrazolo[4,3-c]pyridin-3-yl}-2-[(1S)-1-(4-fluorophenyl)ethoxy]phenyl)-1,1-difluoromethanesulfonamide] |  |  | < 1000 nM |
|  |  | < 10 nM | < 1000 nM | < 1000 nM | C[C@H](Oc1cc(-c2nn(C)c3c(-c4cnn(C5CCN(C(=O)C6CCC(c7ccc8c(c7)C(=O)N(C7CCC(=O)NC7=O)C8=O)CC6)CC5)c4)cnc(N)c23)ccc1NS(=O)(=O)C(F)F)c1ccc(F)cc1 (stereo partly drawn) [Compound 1126, N-(4-{4-amino-7-[1-(1-{4-[2-(2,6-dioxopiperidin-3-yl)-1,3-dioxo-2,3-dihydro-1H-isoindol-5-yl]cyclohexanecarbonyl}piperidin-4-yl)-1H-pyrazol-4-yl]-1-methyl-1H-pyrazolo[4,3-c]pyridin-3-yl}-2-[(1S)-1-(4-fluorophenyl)ethoxy]phenyl)-1,1-difluoromethanesulfonamide] |  |  | < 1000 nM |
|  |  | 10 to 1000 nM | < 1000 nM | < 1000 nM | C[C@H](Oc1cc(-c2nn(C)c3c(-c4cnn(C5CCC(C(=O)N6CCC(c7cccc8c7C(=O)N(C7CCC(=O)NC7=O)C8=O)CC6)CC5)c4)cnc(N)c23)ccc1NS(=O)(=O)C(F)F)c1ccc(F)cc1 (stereo partly drawn) [Compound 1127] |  |  | < 1000 nM |
